Experimental data: patent publication US20100305120A1, “COMPOUNDS FOR TREATING MUSCULAR DYSTROPHY” (BIOMARIN IGA LIMITED, priority 2008, published 2010)

tested on: Utrophin A promoter linked to a luciferase reporter gene; assay: Luciferase reporter assay (murine H2K cells), H2K/mdx/Utro A reporter cell line; format: cell-based; conditions: 48 h; test compound concentration 0.3 μM; mdx mouse H2K Utrophin A reporter cells; read-out: Activity (luciferase level relative to control)
Procedure, shortened: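 Immortalized mdx mouse H2K myoblasts stably carrying ~5 kb utrophin A promoter–luciferase construct, kept at 33 °C, 10% CO2. Compound added 24 h after plating, typically at 10 μM final, for 48 h; luciferase measured by cell lysis and luminescence.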

SMILES	activity at 0.3 µM [%]
CS(=O)(=O)c1ccc(Cn2nc(NC(=O)Nc3ccc(Cl)cc3)c3ccccc32)cc1 [Compound 118, 1-(4-chlorophenyl)-3-(1-(4-(methylsulfonyl)benzyl)-1H-indazol-3-yl)urea]	< 200
O=C(Nc1ccc2c(c1)OCO2)c1nn(Cc2ccc3ccccc3c2)c2ccccc12 [Compound 141, N-(benzo[d][1,3]dioxol-5-yl)-1-(naphthalen-2-ylmethyl)-1H-indazole-3-carboxamide]	< 200

same assay, conditions: 48 h; test compound concentration 3 μM; mdx mouse H2K Utrophin A reporter cells; read-out: Activity (luciferase level relative to control)

SMILES	activity at 3 µM [%]
CS(=O)(=O)c1ccc(Cn2nc(C(=O)Nc3cnc4ccccc4c3)c3ccccc32)cc1 [Compound 103, 1-(4-(methylsulfonyl)benzyl)-N-(quinolin-3-yl)-1H-indazole-3-carboxamide]	< 200

same assay, conditions: 48 h; test compound concentration 10 μM; mdx mouse H2K Utrophin A reporter cells; read-out: Activity (luciferase level relative to control)

SMILES	activity at 10 µM [%]
Cc1ccc(NC(=O)c2nn(Cc3ccc(S(C)(=O)=O)cc3)c3ccccc23)cc1C [Compound 104, N-(3,4-dimethylphenyl)-1-(4-(methylsulfonyl)benzyl)-1H-indazole-3-carboxamide]	301 to 400
CS(=O)(=O)c1ccc(Cn2nc(C(=O)Nc3ccc4c(c3)OCCO4)c3ccccc32)cc1 [Compound 105, N-(2,3-dihydrobenzo[b][1,4]dioxin-6-yl)-1-(4-(methylsulfonyl)benzyl)-1H-indazole-3-carboxamide]	> 401
O=C(Nc1ccc2c(c1)OCO2)c1nn(Cc2cccnc2)c2ccccc12 [Compound 106, N-(benzo[d][1,3]dioxol-5-yl)-1-(pyridin-3-ylmethyl)-1H-indazole-3-carboxamide]	201 to 300
CC(=O)Nc1ccc(NC(=O)c2nn(Cc3ccc(S(C)(=O)=O)cc3)c3ccccc23)cc1 [Compound 107, N-(4-acetamidophenyl)-1-(4-(methylsulfonyl)benzyl)-1H-indazole-3-carboxamide]	201 to 300
Cc1ccc(NC(=O)c2nn(Cc3ccc(S(C)(=O)=O)cc3)c3ccccc23)cc1 [Compound 108, 1-(4-(methylsulfonyl)benzyl)-N-p-tolyl-1H-indazole-3-carboxamide]	> 401
CC(=O)Nc1ccc(NC(=O)c2nn(Cc3ccc(C(F)(F)F)cc3)c3ccccc23)cc1 [Compound 109, N-(4-acetamidophenyl)-1-(4-(trifluoromethyl)benzyl)-1H-indazole-3-carboxamide]	< 200
CS(=O)(=O)c1ccc(Cn2nc(C(=O)Nc3ccc4nccnc4c3)c3ccccc32)cc1 [Compound 110, 1-(4-(methylsulfonyl)benzyl)-N-(quinoxalin-6-yl)-1H-indazole-3-carboxamide]	301 to 400
CS(=O)(=O)c1ccc(Cn2nc(C(=O)Nc3ccc(Cl)c(Cl)c3)c3ccccc32)cc1 [Compound 111, N-(3,4-dichlorophenyl)-1-(4-(methylsulfonyl)benzyl)-1H-indazole-3-carboxamide]	< 200
CCCc1ccc(NC(=O)c2nn(Cc3ccc(S(C)(=O)=O)cc3)c3ccccc23)cc1 [Compound 112, 1-(4-(methylsulfonyl)benzyl)-N-(4-propylphenyl)-1H-indazole-3-carboxamide]	201 to 300
CS(=O)(=O)c1ccc(Cn2nc(C(=O)Nc3ccc4c(c3)CS(=O)(=O)C4)c3ccccc32)cc1 [Compound 113, N-(1,3-dihydrobenzo[c]thiophen-2,2-dioxy-5-yl)-1-(4-(methylsulfonyl)benzyl)-1H-indazole-3-carboxamide]	< 200
O=C(Nc1ccc2c(c1)OCO2)c1nn(Cc2ccc(C(F)(F)F)cc2)c2ccccc12 [Compound 115, N-(benzo[d][1,3]dioxol-5-yl)-1-(4-(trifluoromethyl)benzyl)-1H-indazole-3-carboxamide]	< 200
CS(=O)(=O)c1ccc(Cn2nc(C(=O)Nc3ccc4ccccc4c3)c3ccccc32)cc1 [Compound 116, 1-(4-(methylsulfonyl)benzyl)-N-(naphthalen-2-yl)-1H-indazole-3-carboxamide]	201 to 300
CN(C)C(=O)c1ccc(Cn2nc(C(=O)Nc3ccc4c(c3)OCO4)c3ccccc32)cc1 [Compound 117, N-(benzo[d][1,3]dioxol-5-yl)-1-(4-(dimethylcarbamoyl)benzyl)-1H-indazole-3-carboxamide]	201 to 300
CC(C)c1ccc(Cn2nc(C(=O)Nc3ccc4c(c3)OCO4)c3ccccc32)cc1 [Compound 119, N-(benzo[d][1,3]dioxol-5-yl)-1-(4-isopropylbenzyl)-1H-indazole-3-carboxamide]	< 200
CS(=O)(=O)c1ccc(Cn2nc(C(=O)Nc3ccc4occc4c3)c3ccccc32)cc1 [Compound 120, N-(benzofuran-5-yl)-1-(4-(methylsulfonyl)benzyl)-1H-indazole-3-carboxamide]	301 to 400
CS(=O)(=O)c1ccc(Cn2nc(C(=O)Nc3ccc4c(c3)CCCC4)c3ccccc32)cc1 [Compound 121, 1-(4-(methylsulfonyl)benzyl)-N-(5,6,7,8-tetrahydronaphthalen-2-yl)-1H-indazole-3-carboxamide]	201 to 300
CS(=O)(=O)c1ccc(Cn2nc(C(=O)Nc3ccc(C4CCCCC4)cc3)c3ccccc32)cc1 [Compound 122, N-(4-cyclohexylphenyl)-1-(4-(methylsulfonyl)benzyl)-1H-indazole-3-carboxamide]	201 to 300
O=C(Nc1ccc2c(c1)OCO2)c1nn(Cc2ccc3c(c2)OCO3)c2ccccc12 [Compound 123, N-(benzo[d][1,3]dioxol-5-yl)-1-(benzo[d][1,3]dioxol-5-ylmethyl)-1H-indazole-3-carboxamide]	201 to 300

SMILES	activity at 10 µM [%]
CC(C)(C)c1ccc(C(=O)n2nc(C(=O)Nc3ccc4c(c3)OCO4)c3ccccc32)cc1 [Compound 124, N-(benzo[d][1,3]dioxol-5-yl)-1-(4-tert-butylbenzoyl)-1H-indazole-3-carboxamide]	301 to 400
Cc1cnc(NC(=O)c2nn(Cc3ccc(S(C)(=O)=O)cc3)c3ccccc23)s1 [Compound 125, 1-(4-(methylsulfonyl)benzyl)-N-(5-methylthiazol-2-yl)-1H-indazole-3-carboxamide]	< 200
Cc1csc(NC(=O)c2nn(Cc3ccc(S(C)(=O)=O)cc3)c3ccccc23)n1 [Compound 126, 1-(4-(methylsulfonyl)benzyl)-N-(4-methylthiazol-2-yl)-1H-indazole-3-carboxamide]	< 200
CS(=O)(=O)c1cccc(Cn2nc(C(=O)Nc3ccc4c(c3)OCO4)c3ccccc32)c1 [Compound 127, N-(benzo[d][1,3]dioxol-5-yl)-1-(3-(methylsulfonyl)benzyl)-1H-indazole-3-carboxamide]	< 200
CN(C)S(=O)(=O)c1ccc(Cn2nc(C(=O)Nc3ccc4c(c3)OCO4)c3ccccc32)cc1 [Compound 128, N-(benzo[d][1,3]dioxol-5-yl)-1-(4-(N,N-dimethylsulfamoyl)benzyl)-1H-indazole-3-carboxamide]	201 to 300
O=C(Nc1ccc2c(c1)OCO2)c1nn(Cc2ccsc2)c2ccccc12 [Compound 129, N-(benzo[d][1,3]dioxol-5-yl)-1-(thiophen-3-ylmethyl)-1H-indazole-3-carboxamide]	< 200
CS(=O)(=O)c1ccc(Cn2nc(C(=O)Nc3ccc4c(c3)CCC4)c3ccccc32)cc1 [Compound 130, N-(2,3-dihydro-1H-inden-5-yl)-1-(4-(methylsulfonyl)benzyl)-1H-indazole-3-carboxamide]	201 to 300
Cc1ccc(Cn2nc(C(=O)Nc3ccc4c(c3)OCO4)c3ccccc32)cc1 [Compound 131, N-(benzo[d][1,3]dioxol-5-yl)-1-(4-methylbenzyl)-1H-indazole-3-carboxamide]	< 200
CCc1ccc(Cn2nc(C(=O)Nc3ccc4c(c3)OCO4)c3ccccc32)cc1 [Compound 132, N-(benzo[d][1,3]dioxol-5-yl)-1-(4-ethylbenzyl)-1H-indazole-3-carboxamide]	201 to 300
Cc1ccc(NC(=O)c2nn(Cc3ccc(S(C)(=O)=O)cc3)c3ccccc23)cn1 [Compound 133, N-(6-methylpyridin-3-yl)-1-(4-(methylsulfonyl)benzyl)-1H-indazole-3-carboxamide]	< 200
Cc1ccc(NC(=O)c2nn(Cc3ccc(S(C)(=O)=O)cc3)c3ccccc23)nc1 [Compound 134, N-(5-methylpyridin-2-yl)-1-(4-(methylsulfonyl)benzyl)-1H-indazole-3-carboxamide]	< 200
CN(C)C(=O)c1cccc(Cn2nc3ccccc3c2C(=O)Nc2ccc3c(c2)OC(F)(F)O3)c1 [Compound 135, N-(2,2-difluorobenzo[d][1,3]dioxol-5-yl)-2-(3-(dimethylcarbamoyl)benzyl)-2H-indazole-3-carboxamide]	201 to 300
CS(=O)(=O)c1ccccc1Cn1nc(C(=O)Nc2ccc3c(c2)OCO3)c2ccccc21 [Compound 136, N-(benzo[d][1,3]dioxol-5-yl)-1-(2-(methylsulfonyl)benzyl)-1H-indazole-3-carboxamide]	< 200
O=C(Nc1ccc2c(c1)OCO2)c1nn(Cc2ccc(S(=O)(=O)N3CCOCC3)cc2)c2ccccc12 [Compound 137, N-(benzo[d][1,3]dioxol-5-yl)-1-(4-(morpholinosulfonyl)benzyl)-1H-indazole-3-carboxamide]	201 to 300
Cc1ccc(NC(=O)c2nn(Cc3ccc(C(=O)N(C)C)cc3)c3ccccc23)cc1 [Compound 138, 1-(4-(dimethylcarbamoyl)benzyl)-N-p-tolyl-1H-indazole-3-carboxamide]	201 to 300
CC(C)c1ccc(NC(=O)c2nn(Cc3ccc(C(=O)N(C)C)cc3)c3ccccc23)cc1 [Compound 139, 1-(4-(dimethylcarbamoyl)benzyl)-N-(4-isopropylphenyl)-1H-indazole-3-carboxamide]	< 200
CS(=O)(=O)c1ccc(C(=O)n2nc(C(=O)Nc3ccc4c(c3)OCO4)c3ccccc32)cc1 [Compound 140, N-(benzo[d][1,3]dioxol-5-yl)-1-(4-(methylsulfonyl)benzoyl)-1H-indazole-3-carboxamide]	301 to 400
